Converted amounts (≈) assume the structure as drawn.
How the values were obtained:
Assay type in all cases: functional
Details in all cases: read-out: ED50 (the source's name)
A549 = test: Cytotoxicity against human A549 cells
SK-OV-3 = test: Cytotoxicity against human SK-OV-3 cells
SK-MEL-2 = test: Cytotoxicity against human SK-MEL-2 cells
XF498 = test: Cytotoxicity against human XF498 cells
HCT-15 = test: Cytotoxicity against human HCT15 cells

Row | Structure (SMILES) | EC50 (A549) [mg/L] | EC50 (SK-OV-3) [mg/L] | EC50 (SK-MEL-2) [mg/L] | EC50 (XF498) [mg/L] | EC50 (HCT-15) [mg/L]
1 | CCCCCCCC#CC#CC1CC(=O)C=C(C)C1 (stereo not given) [MONTIPORYINE F] | > 50 | 29.2 (≈ 114 µM) | 36.7 (≈ 143 µM) | 31.3 (≈ 122 µM) | 45.1 (≈ 176 µM)
2 | CCCCCCCC#CC#CC1=CC(=O)NCCC1 [MONTIPORYINE E] | > 50 | > 50 | > 50 | > 50 | > 50
3 | C=CCCCCCCCC#CC#C/C=C/C(C)=O [MONTIPORYNE C] | > 50 | 2.5 (≈ 10.3 µM) | 1.5 (≈ 6.19 µM) | 3.2 (≈ 13.2 µM) | 5.2 (≈ 21.5 µM)
4 | C=CCCCCCCCC#CC#C/C=C\C(C)=O [MONTIPORYINE D] | > 50 | 45.1 (≈ 186 µM) | 43.1 (≈ 178 µM) | > 50 | > 50
5 | CCCCCCCC#CC#C/C=C/C(C)=O [MONTIPORYNE A] | > 50 | 3.2 (≈ 14.8 µM) | 1.4 (≈ 6.47 µM) | 1.9 (≈ 8.78 µM) | 3.7 (≈ 17.1 µM)
6 | CCCCCCCC#CC#C/C=C\C(C)=O [MONTIPORYNE B] | > 50 | 25.9 (≈ 120 µM) | 42.6 (≈ 197 µM) | > 50 | > 50
